Where “and” joins values, the source holds several entries; their conditions need not be identical. Identical values can stand only once.
Legend:
[1] = system: WTβ3 cells; experiment: SRB antiproliferative assay, WTβ3 (HeLa overexpressing βIII tubulin); format: cell-based; settings: relative resistance, WTβ3 vs parental HeLa
[2] = system: M6/6 cells; experiment: SRB antiproliferative assay, M6/6 (SK-OV-3 expressing Pgp); format: cell-based; settings: for Rr value: relative resistance, M6/6 (Pgp) vs parental SKOV3; for IC50: Homo sapiens, SK-OV-3, SRB assay, 48 h, Pgp expressing, read-out: IC50 ± SD in M6/6 cells
[3] = system: cellular microtubules in A-10 cells; experiment: Cellular microtubule depolymerization, indirect immunofluorescence; format: cell-based; settings: for effect on cellular microtubules: result in words
Experimental: Evaluation of microtubule inhibition was performed using previously described methods.^22 Indirect immunofluorescence was used to evaluate the effects of the compounds on cellular microtubules as described previously.^38 Briefly, A-10 cells were treated for 18 h with vehicle (DMSO) or a compound, and microtubule effects were evaluated microscopically using β-tubulin antibody. The EC50 was calculated from 3 independent experiments and expressed as the mean±SD.

[4] = system: tubulin; experiment: Inhibition of tubulin assembly (purified tubulin); format: biochemical; settings: read-out: Inhibition tubulin assembly IC50(μM) ± SD
[5] = target: T1, EGFR (Homo sapiens, UniProt P00533); experiment: Phosphotyrosine ELISA cytoblot, EGFR (A431 cells); format: cell-based; settings: EGF stimulation, read-out: EGFR kinase inhibition
T1 construct: tumor cell lines naturally expressing high levels of EGFR (A431); endogenous in cells; host or cells: A431
Experimental: (§1) Phosphotyrosine ELISA. Cells used were tumor cell lines naturally expressing high levels of EGFR (A431), VEGFR-2 (U251), and PDGFR-β (SH-SY5Y). […] The reaction was stopped and cells were permeabilized by quickly removing the media from the cells and adding ice-cold Tris-buffered saline (TBS) containing 0.05% Triton X-100, protease inhibitor cocktail and tyrosine phosphatase inhibitor cocktail. The TBS solution was then removed and cells fixed to the plate for 30 min at 60° C. and further incubation in 70% ethanol for an additional 30 min. Cells were further exposed to block (TBS with 1% BSA) for 1 h, washed, and then a horseradish peroxidase (HRP)-conjugated phosphotyrosine (PY) antibody was added overnight.

[6] = target: T2, VEGFR-2 (Homo sapiens, UniProt P35968); experiment: Phosphotyrosine ELISA cytoblot, VEGFR-2 (U251 cells); format: cell-based; settings: for IC50: U251 cells, phosphotyrosine ELISA, VEGF stimulation, read-out: VEGFR-2 kinase inhibition; for fold better than sunitinib, VEGFR-2: VEGFR-2 expressing cells
T2 construct: tumor cell lines naturally expressing high levels of EGFR (A431), VEGFR-2 (U251); endogenous in cells; host or cells: U251
Experimental: as §1

[7] = target: T3, PDGFR-β (Homo sapiens, UniProt P09619); experiment: Phosphotyrosine ELISA cytoblot, PDGFR-β (SH-SY5Y cells); format: cell-based; settings: for fold better than sunitinib, PDGFR-β: PDGFR-β expressing cells; for IC50: SH-SY5Y cells, phosphotyrosine ELISA, PDGF-BB stimulation, read-out: PDGFR-β kinase inhibition
T3 construct: naturally expressing high levels of EGFR (A431), VEGFR-2 (U251), and PDGFR-β (SH-SY5Y); endogenous in cells; host or cells: SH-SY5Y
Experimental: as §1

[8] = system: A431 cancer cells; experiment: A431 cytotoxicity (cell proliferation); format: cell-based; settings: Homo sapiens, A-431; A431 cancer cells overexpressing EGFR

T1 sequence (P00533 25-1210): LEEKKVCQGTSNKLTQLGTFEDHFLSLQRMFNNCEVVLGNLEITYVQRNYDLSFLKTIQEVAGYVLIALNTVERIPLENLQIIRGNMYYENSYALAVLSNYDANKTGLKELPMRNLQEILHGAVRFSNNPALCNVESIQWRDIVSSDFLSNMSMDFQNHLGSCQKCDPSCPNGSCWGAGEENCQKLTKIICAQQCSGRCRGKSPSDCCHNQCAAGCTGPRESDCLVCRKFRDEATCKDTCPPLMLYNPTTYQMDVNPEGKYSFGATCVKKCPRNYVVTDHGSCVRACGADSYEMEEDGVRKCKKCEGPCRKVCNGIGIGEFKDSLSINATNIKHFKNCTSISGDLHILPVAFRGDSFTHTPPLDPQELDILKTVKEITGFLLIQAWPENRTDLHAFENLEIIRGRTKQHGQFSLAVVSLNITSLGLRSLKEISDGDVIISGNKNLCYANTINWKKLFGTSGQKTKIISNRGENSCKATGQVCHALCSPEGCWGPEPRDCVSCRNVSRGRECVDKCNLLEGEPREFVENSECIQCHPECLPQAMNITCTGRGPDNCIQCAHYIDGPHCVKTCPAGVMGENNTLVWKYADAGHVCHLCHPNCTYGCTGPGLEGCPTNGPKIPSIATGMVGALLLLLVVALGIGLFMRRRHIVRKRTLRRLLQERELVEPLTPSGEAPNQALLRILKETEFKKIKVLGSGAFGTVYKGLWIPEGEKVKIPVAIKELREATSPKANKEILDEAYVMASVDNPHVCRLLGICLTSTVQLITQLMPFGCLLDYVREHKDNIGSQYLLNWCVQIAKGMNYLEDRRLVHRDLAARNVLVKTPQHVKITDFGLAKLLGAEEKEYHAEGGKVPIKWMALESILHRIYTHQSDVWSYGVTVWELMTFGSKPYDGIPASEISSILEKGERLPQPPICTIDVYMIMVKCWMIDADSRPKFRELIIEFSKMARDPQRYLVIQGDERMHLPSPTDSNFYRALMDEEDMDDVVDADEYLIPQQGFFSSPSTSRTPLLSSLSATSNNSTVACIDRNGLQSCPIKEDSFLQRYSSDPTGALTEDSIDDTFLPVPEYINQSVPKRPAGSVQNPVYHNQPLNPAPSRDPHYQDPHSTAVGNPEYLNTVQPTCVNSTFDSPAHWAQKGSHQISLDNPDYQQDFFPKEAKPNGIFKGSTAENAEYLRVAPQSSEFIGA
T2 sequence (P35968 20-1356): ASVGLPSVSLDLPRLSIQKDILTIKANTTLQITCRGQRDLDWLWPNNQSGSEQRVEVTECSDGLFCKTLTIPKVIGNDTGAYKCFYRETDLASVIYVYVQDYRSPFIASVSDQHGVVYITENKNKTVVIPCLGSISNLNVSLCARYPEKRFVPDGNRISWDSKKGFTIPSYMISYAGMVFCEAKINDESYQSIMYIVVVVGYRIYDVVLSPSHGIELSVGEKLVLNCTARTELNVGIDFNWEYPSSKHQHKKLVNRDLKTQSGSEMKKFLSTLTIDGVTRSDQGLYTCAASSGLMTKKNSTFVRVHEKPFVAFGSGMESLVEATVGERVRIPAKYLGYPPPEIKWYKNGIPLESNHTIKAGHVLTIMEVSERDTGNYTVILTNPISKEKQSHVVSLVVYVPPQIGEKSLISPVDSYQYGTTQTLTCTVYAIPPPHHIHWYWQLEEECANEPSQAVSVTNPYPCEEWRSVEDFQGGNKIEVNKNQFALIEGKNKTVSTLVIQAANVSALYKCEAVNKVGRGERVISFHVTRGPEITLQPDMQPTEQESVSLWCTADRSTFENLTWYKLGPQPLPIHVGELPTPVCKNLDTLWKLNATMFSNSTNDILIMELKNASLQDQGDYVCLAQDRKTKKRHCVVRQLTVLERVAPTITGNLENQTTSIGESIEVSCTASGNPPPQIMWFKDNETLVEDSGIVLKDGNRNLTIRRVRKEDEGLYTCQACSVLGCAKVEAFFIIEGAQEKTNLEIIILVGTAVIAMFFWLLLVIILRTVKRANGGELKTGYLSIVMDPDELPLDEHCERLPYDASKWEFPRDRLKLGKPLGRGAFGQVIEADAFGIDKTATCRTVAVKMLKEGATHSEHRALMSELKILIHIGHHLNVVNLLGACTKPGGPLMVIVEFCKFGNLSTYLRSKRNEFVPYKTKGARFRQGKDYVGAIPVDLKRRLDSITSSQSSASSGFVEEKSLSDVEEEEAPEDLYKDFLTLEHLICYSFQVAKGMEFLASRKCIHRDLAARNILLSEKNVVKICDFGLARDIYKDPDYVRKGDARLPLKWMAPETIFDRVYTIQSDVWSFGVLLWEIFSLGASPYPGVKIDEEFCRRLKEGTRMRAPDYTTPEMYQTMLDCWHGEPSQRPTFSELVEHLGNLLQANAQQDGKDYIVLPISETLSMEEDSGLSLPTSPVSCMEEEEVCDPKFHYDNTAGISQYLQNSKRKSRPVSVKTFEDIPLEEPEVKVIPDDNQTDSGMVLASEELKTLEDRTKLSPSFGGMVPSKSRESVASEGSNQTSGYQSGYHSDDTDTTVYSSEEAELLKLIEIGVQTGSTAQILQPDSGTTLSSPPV
T3 sequence (P09619 33-1106): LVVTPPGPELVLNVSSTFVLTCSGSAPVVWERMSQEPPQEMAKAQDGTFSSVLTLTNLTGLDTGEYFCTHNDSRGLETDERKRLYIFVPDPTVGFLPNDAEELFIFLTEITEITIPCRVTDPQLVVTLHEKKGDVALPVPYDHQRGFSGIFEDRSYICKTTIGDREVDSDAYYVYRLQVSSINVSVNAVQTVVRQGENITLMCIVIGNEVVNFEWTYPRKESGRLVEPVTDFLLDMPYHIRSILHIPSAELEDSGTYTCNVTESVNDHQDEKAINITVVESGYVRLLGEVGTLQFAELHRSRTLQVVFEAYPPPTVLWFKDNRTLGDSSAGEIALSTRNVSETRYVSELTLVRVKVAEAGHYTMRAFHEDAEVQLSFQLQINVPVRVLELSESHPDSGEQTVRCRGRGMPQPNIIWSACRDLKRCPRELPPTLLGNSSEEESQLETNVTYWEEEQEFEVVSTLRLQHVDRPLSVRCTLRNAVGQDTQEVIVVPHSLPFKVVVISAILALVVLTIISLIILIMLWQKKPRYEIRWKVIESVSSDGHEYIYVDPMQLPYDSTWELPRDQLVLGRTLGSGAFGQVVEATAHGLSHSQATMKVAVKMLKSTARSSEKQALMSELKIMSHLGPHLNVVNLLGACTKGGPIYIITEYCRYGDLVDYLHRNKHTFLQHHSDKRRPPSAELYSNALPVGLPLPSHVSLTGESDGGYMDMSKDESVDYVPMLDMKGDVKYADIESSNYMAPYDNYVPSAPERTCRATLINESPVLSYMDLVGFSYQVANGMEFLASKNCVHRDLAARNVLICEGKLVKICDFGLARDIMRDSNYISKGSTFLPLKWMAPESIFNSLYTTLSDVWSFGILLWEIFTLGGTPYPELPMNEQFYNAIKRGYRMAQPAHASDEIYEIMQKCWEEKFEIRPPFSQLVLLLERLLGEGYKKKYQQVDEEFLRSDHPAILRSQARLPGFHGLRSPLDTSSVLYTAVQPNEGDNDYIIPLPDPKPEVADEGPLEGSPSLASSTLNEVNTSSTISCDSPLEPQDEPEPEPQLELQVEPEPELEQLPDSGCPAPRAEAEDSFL

## COc1ccc(/C=C\c2cc(OC)c(OC)c(OC)c2)cc1O [CA-4, combretastatin A-4, reference compound]
[1]
  Rr value: 1.0
[2]
  Rr value: 0.4

## COc1ccc(N(C)c2nc(C)nc3oc(C)cc23)cc1 [Compound 1]
[3]; Rattus norvegicus, A10, 18 h, read-out: EC50 for MT depolymerization in A · 10 cells
  EC50: 103 nM
[1]
  Rr value: 0.8
[2]
  Rr value: 1.7
[4]
  IC50: 2.4 ± 0.01 µM

## COc1ccc(N(C)c2nc(C)nc3oc(C)cc23)cc1OC [Compound 3, N-(3,4-dimethoxyphenyl)-N,2,6-trimethylfuro[2,3-d]pyrimidin-4-amine]
[3]
  effect on cellular microtubules: dose-dependent loss of cellular microtubules

## COc1cc(N(C)c2nc(C)nc3oc(C)cc23)cc(OC)c1OC [Compound 4, N,2,6-trimethyl-N-(3,4,5-trimethoxyphenyl)furo[2,3-d]pyrimidin-4-amine]
[5]
  IC50: > 500 nM
[6]
  IC50: > 300 nM

## Cc1nc(N(C)c2ccc3c(c2)CCO3)c2cc(C)oc2n1 [Compound 6, N-(2,3-dihydro-1-benzofuran-5-yl)-N,2,6-trimethylfuro[2,3-d]pyrimidin-4-amine]
[6]
  fold better than sunitinib, VEGFR-2: 3 fold
[7]
  fold better than sunitinib, PDGFR-β: about 4 fold
[3]
  effect on cellular microtubules: dose-dependent loss of cellular microtubules
[2]
  IC50: 155 ± 17.2 nM
  Rr value: 1.3

## Cc1nc(N(C)c2ccc3occc3c2)c2cc(C)oc2n1 [Compound 7, N-1-benzofuran-5-yl-N,2,6-trimethylfuro[2,3-d]pyrimidin-4-amine]
[6]
  fold better than sunitinib, VEGFR-2: 3 fold
[7]
  fold better than sunitinib, PDGFR-β: about 4 fold
[3]
  effect on cellular microtubules: dose-dependent loss of cellular microtubules
[2]
  IC50: 509 ± 4.8 nM
  Rr value: 1.2

## COc1ccc2c(c1)CCN2c1nc(C)nc2oc(C)cc12 [Compound 8, 4-(5-methoxyindolin-1-yl)-2,6-dimethylfuro[2,3-d]pyrimidine]
[3]
  effect on cellular microtubules: no effect on cellular microtubules

## COc1ccc2c(ccn2-c2nc(C)nc3oc(C)cc23)c1 [Compound 9, 4-(5-methoxy-1H-indol-1-yl)-2,6-dimethylfuro[2,3-d]pyrimidine]
[5]
  IC50: > 500 nM

## COc1ccc2c(c1)CCCN2c1nc(C)nc2oc(C)cc12 [Compound 10, 4-(6-methoxy-3,4-dihydroquinolin-1(2H)-yl)-2,6-dimethylfuro[2,3-d]pyrimidine]
[3]
  effect on cellular microtubules: dose-dependent loss of cellular microtubules

## CCOc1ccc(N(C)c2nc(C)nc3oc(C)cc23)cc1 [Compound 11, N-(4-ethoxyphenyl)-N,2,6-trimethylfuro[2,3-d]pyrimidin-4-amine]
[5]
  IC50: 102 ± 20.1 nM
[6]
  IC50: 38.5 ± 4.7 nM
[7]
  IC50: 84 ± 10 nM

## CCCOc1ccc(N(C)c2nc(C)nc3oc(C)cc23)cc1 [Compound 12, N-2,6-trimethyl-N-(4-propoxyphenyl)furo[2,3-d]pyrimidin-4-amine]
[5]
  IC50: > 500 nM
[6]
  IC50: 121 ± 18.6 nM
[7]
  IC50: 132 ± 14.4 nM
[8]
  IC50: 92.9 ± 10.1 nM
[2]
  IC50: 30.8 ± 1.7 nM
  Rr value: 1.3

## CC(=O)O[C@H]1C(=O)[C@@]2(C)[C@H]([C@H](OC(=O)c3ccccc3)[C@]3(O)C[C@H](OC(=O)[C@H](O)[C@@H](NC(=O)c4ccccc4)c4ccccc4)C(C)=C1C3(C)C)[C@]1(OC(C)=O)CO[C@@H]1C[C@@H]2O [Paclitaxel, reference compound]
[1]
  Rr value: 17.3
[2]
  Rr value: over 250 and 265.2
